The values that follow come from patent US9474790B2, “Stable, protracted GLP-1/glucagon receptor co-agonists for medical use” (Novo Nordisk A/S, priority 2013, dated 2016).

Numbered stars: 1 amine (or outer) side, 2 acyl side, 3 side chain; on linkers, the order of the positions; unused ones are H or OH. Bridge positions count the residues as written; N and C are the ends. Square brackets hold non-standard residues; d marks the D form. Side chains are listed from the residue outwards. Peptide text beside a SMILES is read from it. I, II: the chains in the order shown. * marks the point of attachment. C18 diacid = O=C(O)CCCCCCCCCCCCCCCCC(=O)*; γGlu = O=C(O)[C@H](CCC(=O)[*:2])N[*:1]; Ac4c = NC1(C(=O)O)CCC1; AEEA = NCCOCCOCC(=O)O; Aib = CC(C)(N)C(=O)O

This test deals with T1, human GLP-1 receptor (Homo sapiens, UniProt P43220).
T1 construct: expressed in transfected cells; host or cells: BHK cells (parent BHKTS13), clone FCW467-12A/KZ10-1, with CRE luciferase
Description: GLP-1 receptor potency, CRE luciferase reporter gene assay in BHK cells. Format: cell-based. The note with it: BHK cells expressing human GLP-1 receptor, read-out: EC50 GLP-1R. The procedure, abridged: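 BHK cells stably expressing human GLP-1 receptor with CRE-luciferase reporter, 5×10EE3 cells/well in phenol red-free DMEM with 10 mM Hepes, 2% ovalbumin, 0.2% Pluronic F-68. Compounds at final 1×10EE-6 to 1×10EE-13 M, 3 h at 37° C; steadylite luminescence; EC50 by four-parameter fit, in pM.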

T1 sequence (P43220 24-463): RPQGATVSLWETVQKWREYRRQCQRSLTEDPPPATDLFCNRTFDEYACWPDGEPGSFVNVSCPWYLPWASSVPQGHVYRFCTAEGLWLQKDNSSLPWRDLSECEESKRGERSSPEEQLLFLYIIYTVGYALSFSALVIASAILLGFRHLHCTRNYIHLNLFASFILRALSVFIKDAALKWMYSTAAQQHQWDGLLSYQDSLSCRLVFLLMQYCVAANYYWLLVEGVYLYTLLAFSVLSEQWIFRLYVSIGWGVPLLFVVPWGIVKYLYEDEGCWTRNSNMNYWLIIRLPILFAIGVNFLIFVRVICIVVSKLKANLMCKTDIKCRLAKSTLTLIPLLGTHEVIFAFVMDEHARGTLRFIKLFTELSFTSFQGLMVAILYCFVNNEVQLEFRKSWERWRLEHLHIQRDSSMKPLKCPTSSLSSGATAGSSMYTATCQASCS

As usually defined, the EC50 is the concentration needed to bring the measured effect to its halfway point. In the case of `CC(C)C[C@H](NC(=O)[C@H](Cc1ccc(O)cc1)NC(=O)[C@H](CCCCN)NC(=O)[C@H](CO)NC(=O)[C@H](CC(C)C)NC(=O)[C@H](CC(=O)O)NC(=O)[C@H](CO)NC(=O)[C@@H](NC(=O)[C@H](Cc1ccccc1)NC(=O)[C@@H](NC(=O)CNC(=O)[C@H](CCC(N)=O)NC(=O)C1(NC(=O)[C@@H](N)Cc2c[nH]cn2)CCC1)[C@@H](C)O)[C@@H](C)O)C(=O)N[C@@H](CCC(=O)O)C(=O)N[C@@H](CO)C(=O)N[C@@H](CCCCN)C(=O)N[C@@H](CCCNC(=N)N)C(=O)N[C@@H](C)C(=O)N[C@@H](CCCNC(=N)N)C(=O)N[C@@H](CCC(=O)O)C(=O)N[C@@H](Cc1ccccc1)C(=O)N[C@H](C(=O)N[C@@H](CCC(N)=O)C(=O)N[C@@H](Cc1c[nH]c2ccccc12)C(=O)N[C@@H](CC(C)C)C(=O)N[C@@H](CC(C)C)C(=O)N[C@@H](CCCCNC(=O)CNC(=O)[C@H](CO)NC(=O)[C@H](CCC(=O)O)NC(=O)CNC(=O)[C@H](CO)NC(=O)CC[C@H](NC(=O)CC[C@H](NC(=O)CCCCCCCCCCCCCCCCC(=O)O)C(=O)O)C(=O)O)C(=O)N[C@H](C(N)=O)[C@@H](C)O)C(C)C` [Example 36, N^ε28-[2-[[(2S)-2-[[(2S)-4-carboxy-2-[[2-[[(2S)-2-[[(4S)-4-carboxy-4-[[(4S)-4-carboxy-4-(17-carboxyheptadecanoylamino)butanoyl]amino]butanoyl]amino]-3-hydroxypropanoyl]amino]acetyl]amino]butanoyl]amino]-3-hydroxypropanoyl]amino]acetyl]-[Acb2,Leu10,Glu15,Lys17, Arg20,Glu21,Leu27,Lys28]-Glucagon amide] (I: H-H[Ac4c]QGTFTSDLSKYLESKRAREFVQWLLKT-NH2 / II: {C18 diacid-γGlu-γGlu}-SGESG; amide I:28-II:C; N-terminus assumed), the EC50 turned out to be 2 pM.

With `CC(C)C[C@H](NC(=O)[C@H](Cc1ccc(O)cc1)NC(=O)[C@H](CCCCN)NC(=O)[C@H](CO)NC(=O)[C@H](CC(C)C)NC(=O)[C@H](CC(=O)O)NC(=O)[C@H](CO)NC(=O)[C@@H](NC(=O)[C@H](Cc1ccccc1)NC(=O)[C@@H](NC(=O)CNC(=O)[C@H](Cc1c[nH]cn1)NC(=O)C(C)(C)NC(=O)[C@@H](N)Cc1c[nH]cn1)[C@@H](C)O)[C@@H](C)O)C(=O)N[C@@H](CCC(=O)O)C(=O)N[C@@H](CO)C(=O)N[C@@H](CCCNC(=N)N)C(=O)N[C@@H](CCCNC(=N)N)C(=O)N[C@@H](C)C(=O)N[C@@H](CCCNC(=N)N)C(=O)N[C@@H](CC(=O)O)C(=O)N[C@@H](Cc1ccccc1)C(=O)N[C@H](C(=O)N[C@@H](CCC(N)=O)C(=O)N[C@@H](Cc1c[nH]c2ccccc12)C(=O)N[C@@H](CC(C)C)C(=O)N[C@@H](CC(C)C)C(=O)N[C@@H](CCCCNC(=O)CNC(=O)[C@H](CO)NC(=O)[C@H](CCC(=O)O)NC(=O)CNC(=O)[C@H](CO)NC(=O)CC[C@H](NC(=O)CC[C@H](NC(=O)CCCCCCCCCCCCCCCCC(=O)O)C(=O)O)C(=O)O)C(=O)N[C@H](C(N)=O)[C@@H](C)O)C(C)C` [Example 37, N^ε28-[2-[[(2S)-2-[[(2S)-4-carboxy-2-[[2-[[(2S)-2-[[(4S)-4-carboxy-4-[[(4S)-4-carboxy-4-(17-carboxyheptadecanoylamino)butanoyl]amino]butanoyl]amino]-3-hydroxypropanoyl]amino]acetyl]amino]butanoyl]amino]-3-hydroxypropanoyl]amino]acetyl]-[Aib2,His3,Leu10,Glu15, Arg20,Leu27,Lys28]-Glucagon amide] (I: H-H[Aib]HGTFTSDLSKYLESRRARDFVQWLLKT-NH2 / II: {C18 diacid-γGlu-γGlu}-SGESG; amide I:28-II:C; N-terminus assumed), the EC50 was found to be 4 pM.

As for `CC(C)C[C@H](NC(=O)[C@H](Cc1ccc(O)cc1)NC(=O)[C@H](CCCCN)NC(=O)[C@H](CO)NC(=O)[C@H](CC(C)C)NC(=O)[C@H](CC(=O)O)NC(=O)[C@H](CO)NC(=O)[C@@H](NC(=O)[C@H](Cc1ccccc1)NC(=O)[C@@H](NC(=O)CNC(=O)[C@H](CCC(N)=O)NC(=O)C(C)(C)NC(=O)[C@@H](N)Cc1c[nH]cn1)[C@@H](C)O)[C@@H](C)O)C(=O)N[C@@H](CC(=O)O)C(=O)N[C@@H](C)C(=O)N[C@@H](CCCNC(=N)N)C(=O)N[C@@H](CCCNC(=N)N)C(=O)N[C@@H](C)C(=O)N[C@@H](CCCNC(=N)N)C(=O)N[C@@H](CCC(=O)O)C(=O)N[C@@H](Cc1ccccc1)C(=O)N[C@H](C(=O)N[C@@H](CCC(N)=O)C(=O)N[C@@H](Cc1c[nH]c2ccccc12)C(=O)N[C@@H](CC(C)C)C(=O)N[C@@H](CC(C)C)C(=O)N[C@@H](CC(N)=O)C(=O)N[C@@H](CCCCNC(=O)CC[C@H](NC(=O)CC[C@H](NC(=O)COCCOCCNC(=O)CC[C@H](NC(=O)CCCCCCCCCCCCCCCCC(=O)O)C(=O)O)C(=O)O)C(=O)O)C(N)=O)C(C)C` [Example 39, N^ε29-[(4S)-4-carboxy-4-[[(4S)-4-carboxy-4-[[2-[2-[2-[[(4S)-4-carboxy-4-(17-carboxyheptadecanoylamino)butanoyl]amino]ethoxy]ethoxy]acetyl]amino]butanoyl]amino]butanoyl]-[Aib2,Leu10,Ala16,Arg20,Glu21,Leu27,Lys29]-Glucagon amide] (H-H[Aib]QGTFTSDLSKYLDARRAREFVQWLLNK([γGlu-γGlu-AEEA-γGlu-C18 diacid])-NH2; N-terminus assumed), the EC50 was found to be 4 pM.

Regarding `CC(C)C[C@H](NC(=O)[C@H](CC(C)C)NC(=O)[C@H](Cc1c[nH]c2ccccc12)NC(=O)[C@H](CCC(N)=O)NC(=O)[C@@H](NC(=O)[C@H](Cc1ccccc1)NC(=O)[C@H](CCC(=O)O)NC(=O)[C@H](CCCNC(=N)N)NC(=O)[C@H](C)NC(=O)[C@H](CCCNC(=N)N)NC(=O)[C@H](CCCNC(=N)N)NC(=O)[C@H](CO)NC(=O)[C@H](CCC(=O)O)NC(=O)[C@H](CC(C)C)NC(=O)[C@H](Cc1ccc(O)cc1)NC(=O)[C@H](CCCCN)NC(=O)[C@H](CO)NC(=O)[C@H](CC(C)C)NC(=O)[C@H](CC(=O)O)NC(=O)[C@H](CO)NC(=O)[C@@H](NC(=O)[C@H](Cc1ccccc1)NC(=O)[C@@H](NC(=O)CNC(=O)[C@H](CCC(N)=O)NC(=O)C(C)(C)NC(=O)[C@@H](N)Cc1c[nH]cn1)[C@@H](C)O)[C@@H](C)O)C(C)C)C(=O)N[C@@H](CC(N)=O)C(=O)N[C@@H](CCCCNC(=O)CC[C@H](NC(=O)CC[C@H](NC(=O)COCCOCCNC(=O)CC[C@H](NC(=O)CCCCCCCCCCCCCCCCC(=O)O)C(=O)O)C(=O)O)C(=O)O)C(N)=O` [Example 40, N^ε29-[(4S)-4-carboxy-4-[[(4S)-4-carboxy-4-[[2-[2-[2-[[(4S)-4-carboxy-4-(17-carboxyheptadecanoylamino)butanoyl]amino]ethoxy]ethoxy]acetyl]amino]butanoyl]amino]butanoyl]-[Aib2,Leu10,Glu15,Arg20,Glu21,Leu27,Lys29]-Glucagon amide] (H-H[Aib]QGTFTSDLSKYLESRRAREFVQWLLNK([γGlu-γGlu-AEEA-γGlu-C18 diacid])-NH2; N-terminus assumed), the EC50 is 4 pM.

For the compound `CC(C)C[C@H](NC(=O)[C@H](Cc1ccc(O)cc1)NC(=O)[C@H](CCCCN)NC(=O)[C@H](CO)NC(=O)[C@H](CC(C)C)NC(=O)[C@H](CC(=O)O)NC(=O)[C@H](CO)NC(=O)[C@@H](NC(=O)[C@H](Cc1ccccc1)NC(=O)[C@@H](NC(=O)CNC(=O)[C@H](CCC(N)=O)NC(=O)C(C)(C)NC(=O)[C@@H](N)Cc1c[nH]cn1)[C@@H](C)O)[C@@H](C)O)C(=O)N[C@@H](CCC(=O)O)C(=O)N[C@@H](CO)C(=O)N[C@@H](CCCNC(=N)N)C(=O)N[C@@H](CCCNC(=N)N)C(=O)N[C@@H](C)C(=O)N[C@@H](CCCNC(=N)N)C(=O)N[C@@H](CCC(=O)O)C(=O)N[C@@H](Cc1ccccc1)C(=O)N[C@H](C(=O)N[C@@H](CCC(N)=O)C(=O)N[C@@H](Cc1c[nH]c2ccccc12)C(=O)N[C@@H](CC(C)C)C(=O)N[C@@H](CC(C)C)C(=O)N[C@@H](CCCCNC(=O)CC[C@H](NC(=O)CC[C@H](NC(=O)CC[C@H](NC(=O)CCCCCCCCCCCCCCCCC(=O)O)C(=O)O)C(=O)O)C(=O)O)C(=O)N[C@H](C(N)=O)[C@@H](C)O)C(C)C` [Example 41, N^ε28-[(4S)-4-carboxy-4-[[(4S)-4-carboxy-4-[[(4S)-4-carboxy-4-(17-carboxyheptadecanoylamino)butanoyl]amino]butanoyl]amino]butanoyl]-[Aib2,Leu10,Glu15, Arg20,Glu21,Leu27,Lys28]-Glucagon amide] (H-H[Aib]QGTFTSDLSKYLESRRAREFVQWLLK([γGlu-γGlu-γGlu-C18 diacid])T-NH2; N-terminus assumed), the EC50 amounted to 7 pM.

For the compound `CC(C)C[C@H](NC(=O)[C@H](Cc1ccc(O)cc1)NC(=O)[C@H](CCCCN)NC(=O)[C@H](CO)NC(=O)[C@H](CC(C)C)NC(=O)[C@H](CC(=O)O)NC(=O)[C@H](CO)NC(=O)[C@@H](NC(=O)[C@H](Cc1ccccc1)NC(=O)[C@@H](NC(=O)CNC(=O)[C@H](CCC(N)=O)NC(=O)C(C)(C)NC(=O)[C@@H](N)Cc1c[nH]cn1)[C@@H](C)O)[C@@H](C)O)C(=O)N[C@@H](CCC(=O)O)C(=O)N[C@@H](CO)C(=O)N[C@@H](CCCNC(=N)N)C(=O)N[C@@H](CCCNC(=N)N)C(=O)N[C@@H](C)C(=O)N[C@@H](CCCNC(=N)N)C(=O)N[C@@H](CCC(=O)O)C(=O)N[C@@H](Cc1ccccc1)C(=O)N[C@H](C(=O)N[C@@H](CCC(N)=O)C(=O)N[C@@H](Cc1c[nH]c2ccccc12)C(=O)N[C@@H](CC(C)C)C(=O)N[C@@H](CC(C)C)C(=O)N[C@@H](CCCCNC(=O)COCCOCCNC(=O)COCCOCCNC(=O)CC[C@H](NC(=O)CC[C@H](NC(=O)CC[C@H](NC(=O)CCCCCCCCCCCCCCCCC(=O)O)C(=O)O)C(=O)O)C(=O)O)C(=O)N[C@H](C(N)=O)[C@@H](C)O)C(C)C` [Example 42, N^ε28-[2-[2-[2-[[2-[2-[2-[[(4S)-4-carboxy-4-[[(4S)-4-carboxy-4-[[(4S)-4-carboxy-4-(17-carboxyheptadecanoylamino)butanoyl]amino]butanoyl]amino]butanoyl]amino]ethoxy]ethoxy]acetyl]amino]ethoxy]ethoxy]acetyl]-[Aib2,Leu10,Glu15,Arg20,Glu21,Leu27,Lys28]-Glucagon amide] (H-H[Aib]QGTFTSDLSKYLESRRAREFVQWLLK([AEEA-AEEA-γGlu-γGlu-γGlu-C18 diacid])T-NH2; N-terminus assumed), the EC50 turned out to be 3 pM.
